Data on six molecules can be found in publication PMC8791944, “GLUT3 inhibitor discovery through in silico ligand screening and in vivo validation in eukaryotic expression systems” (Scientific Reports, 2022).

Type in all cases: cell-based
Series [1] relates to BeWo (choriocarcinoma) cells. In words: MTT cancer cell viability assay, BeWo. As to conditions: Homo sapiens, 48 h. Here is the method:
(§1) A possible therapeutic application of GLUT3 inhibitors is in oncology, especially for cancers in which GLUT3 is a poor prognosis marker. We tested the effect of GLUT3 inhibitors on the cell viability of several different cancer lines: myeloid leukemia (HL60 and U937), lung cancer (A549), colorectal adenocarcinoma (Caco-2), breast cancer (MCF7), hepatocellular carcinoma (HepG2), and choriocarcinoma (BeWo) cells. GLUT3 inhibitors, at five different concentrations, ranging from 2 to 100 µM, were incubated with cancer cells for 48 h. Then, cell viability was assessed with the MTT assay. […] G3iC and G3iD also affected the leukemia cell lines but at double the concentrations of G3iB and G3iE. […] G3iB had some cytotoxic activity (CC50 < 50 µM) against the highest number of cancer cell lines (HL60, U937, A549, HepG2, and MCF7).
(§2) Cancer cell viability in the presence of GLUT3 inhibitors was assayed using the MTT Cell Viability Kit (Biotium Inc, Freemont, CA) according to manufacturer’s instructions. Cancer cells were grown in the corresponding medium, at 37 °C and 5% CO2 in a humidified incubator. The media (Gibco) for leukemia cells (HL60 and U937), A549, MCF7, BeWo, and HepG2 cells were RPMI 1640, Ham’s F-12K, DMEM:F-12, Ham’s F-12K, and EMEM, respectively, all supplemented with 10% (v/v) fetal bovine serum (HyClone). Caco-2 cells were grown in EMEM supplemented with 20% (v/v) fetal bovine serum. Cells were detached from the culture flasks with Accutase (Innovative Cell Technologies, Inc., San Diego, CA) according to manufacturer’s instructions. Cells were seeded in 96-well plates, at a density of ~ 30,000 cells/well (in 100 µl fresh media) and incubated with varying concentrations of GLUT3 inhibitors for 48 h, at 37 °C and 5% CO2 in a humidified incubator. The inhibitors were dissolved in DMSO, at 100× the final concentration, so that 1 µl of the stock inhibitor concentration was added per well, making the final DMSO concentration 1% (v/v). Therefore, controls for 100% cell viability were cells with 1% (v/v) DMSO without the inhibitors. Controls for 0% cell viability were cells treated with 0.3% (v/v) Tween 20. For MTT assay, 10 µl of MTT reagent was added in each well followed by 3–4 h incubation at 37 °C and 5% CO2 in a humidified incubator. After thoroughly mixing in 200 µl DMSO in each well, the plates were put into a plate reader (BioTek Synergy H1), and the absorbances at 570 nm and 630 nm were measured with Gen5 program (BioTek Inc.). The experimental values represent Abs570 nm-Abs630 nm with each inhibitor condition and control being the average of three wells.
(§3) Supplementary Figure S8. Effect of GLUT3 inhibitors on the viability of various cancer cell lines. Cell viability was determined by MTT assay in A549 (lung cancer), BeWo (choriocarcinoma), Caco-2 (colon cancer), HepG2 (liver cancer), HL-60 (leukemia), MCF7 (breast cancer), and U937 (histiocytic lymphoma) cell lines. GLUT3 inhibitors at concentrations of 2, 5, 10, 20, 50, and 100 µM were incubated with cells in 96-well plates for 48 hours before the addition of the MTT reagent.

For series [2], the system named is HL60 leukemia cells. In words: MTT cancer cell viability assay, HL60. The following applies: HL60, 48 h. On the procedure: as §1, §2, §3
The test system of series [3] is A549 (lung cancer) cells. In words: MTT cancer cell viability assay, A549. The following applies: A549, 48 h. Here is the method:
as §1, §2, §3

Series [4] relates to U937 leukemia cells. In words: MTT cancer cell viability assay, U937. As to conditions: U937, 48 h. On the procedure:
as §1, §2, §3

Series [5] deals with MCF7 (breast cancer) cells. Nature of the series: MTT cancer cell viability assay, MCF7. As to conditions: MCF7, 48 h. On the procedure:
as §1, §2, §3

Broadly, the CC50 is the concentration at which the toxic effect on the cells reaches its halfway point.

Some results are limits rather than exact numbers.

On to `Cc1cccnc1OC1CCN(c2cc(N3CCCC3CO)ncn2)CC1` (centres unmarked) [G3iC], for which the CC50 in series [1] was above 100 µM; in series [2] (Homo sapiens, HL-60, 48 h), 31.1 ± 3.8 µM; in series [3], 21.6 ± 2.5 µM; in series [3] (Homo sapiens) it was around 22 µM; in series [4] (Homo sapiens, U-937, 48 h) it was above 50 µM; in series [5] (Homo sapiens), above 50 µM.

For `O=C(Nc1cccc(Cl)c1)c1cccc(NC(=O)c2cccc([N+](=O)[O-])c2)c1` [G3iE, N-{3-[(3-chloroanilino)carbonyl]phenyl}-3-nitrobenzamide], the CC50 is above 50 µM in series [1]; 15.7 ± 0.8 µM in series [2]; below 20 µM in series [2] (Homo sapiens, HL-60, 48 h); above 50 µM in series [3]; around 33 µM in series [3] (Homo sapiens); below 20 µM in series [4] (Homo sapiens, U-937, 48 h). In addition, the CC50 is around 18 µM in series [4] and above 100 µM in series [5] (Homo sapiens).

Regarding `Cc1cc(NC(=O)CCC2Cc3ccccc3NC2=O)nc(-c2ccccc2)n1` (centres unmarked) [G3iD], the CC50 in series [1] was above 100 µM; in series [2] (Homo sapiens, HL-60, 48 h), 28.7 ± 2.1 µM; in series [3] (Homo sapiens) it was 32.5 ± 14.2 µM; in series [4] (Homo sapiens, U-937, 48 h), above 50 µM; in series [5] (Homo sapiens), above 50 µM.

Consider `COc1ccccc1-n1c(/C=C/c2ccc(O)cc2)nc2ccc(Br)cc2c1=O` [G3iB, 6-bromo-2-[(E)-2-(4-hydroxyphenyl)ethenyl]-3-(2-methoxyphenyl)quinazolin-4(3H)-one], for which the values for the CC50 in series [1], in series [5] (Homo sapiens) and in series [5] were above 50 µM, below 50 µM and 42.6 ± 4.2 µM, respectively.

`CC(=O)Nc1ccc(S(=O)(=O)Nc2ccc(Nc3cc(N(C)C)nc(C)n3)cc2)cc1` [G3iA, N-(4-{[(4-{[6-(dimethylamino)-2-methylpyrimidin-4-yl]amino}phenyl)amino]sulfonyl}phenyl)acetamide]: the CC50 is above 100 µM in series [1]; above 100 µM in series [2] (Homo sapiens, HL-60, 48 h); above 100 µM in series [3] (Homo sapiens); above 100 µM in series [4] (Homo sapiens, U-937, 48 h); above 100 µM in series [5] (Homo sapiens).

On to `Cc1ccccc1CN(Cc1nnc(C(C)(C)C)o1)c1ccc2nc(O)[nH]c2c1` [G3iF], for which the CC50 in series [1] was around 100 µM; in series [2] (Homo sapiens, HL-60, 48 h), above 50 µM; in series [3] (Homo sapiens) it was above 100 µM; in series [4] (Homo sapiens, U-937, 48 h), above 50 µM; in series [5] (Homo sapiens), above 100 µM.
